Source: patent US9708259B2 (Hoffmann-La Roche Inc., priority 2013, dated 2017)
Changes are numbered by the printed parent chain. Where two headings read alike, the source gives them in different places.

Experiments:
[1] = target: T1, human M1 (Homo sapiens, UniProt P11229); assay: M1 PAM assay (FLIPR intracellular calcium), human M1; format: cell-based
T1 construct: expressed in transfected cells; host or cells: CHO cells
T1 sequence (P11229 1-460): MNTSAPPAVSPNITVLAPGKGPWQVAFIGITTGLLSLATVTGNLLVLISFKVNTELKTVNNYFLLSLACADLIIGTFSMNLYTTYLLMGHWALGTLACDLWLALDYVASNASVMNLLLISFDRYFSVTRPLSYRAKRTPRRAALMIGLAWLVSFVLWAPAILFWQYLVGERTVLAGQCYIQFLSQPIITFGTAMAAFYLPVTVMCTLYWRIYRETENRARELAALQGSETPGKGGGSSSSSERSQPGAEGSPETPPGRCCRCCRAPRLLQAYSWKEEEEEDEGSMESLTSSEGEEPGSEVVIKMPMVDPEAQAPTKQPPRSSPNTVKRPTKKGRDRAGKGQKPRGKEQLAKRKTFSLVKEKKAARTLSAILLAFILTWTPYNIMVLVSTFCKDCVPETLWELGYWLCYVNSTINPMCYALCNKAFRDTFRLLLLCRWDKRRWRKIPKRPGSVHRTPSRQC
Method in brief: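 CHO cells expressing M1, Fluo-4AM-loaded, in HEPES/probenecid HBSS pH 7.4, 1% DMSO final. Compounds pre-incubated 2 min for agonist activity versus 30 nM acetylcholine control. For PAM activity, acetylcholine EC20 added after the 2 min pre-incubation, then 2 min more before FLIPR intracellular Ca2+ read.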

[2] = target: T2, ratM1 (Rattus norvegicus, UniProt P08482); assay: M1 PAM assay (FLIPR intracellular calcium), rat M1; format: cell-based
T2 construct: expressed in transfected cells; host or cells: CHO cells (stated generally for the assay, not specifically for rat M1)
T2 sequence (P08482 1-460): T1 sequence (P11229 1-460) with A5V, T254S, P309S, R320K, A337G, I413V

[3] = CHO human M1 cells, FLIPR Ca2+, with EC20 of acetylcholine, first value of the cell, read-out: hM1 EC50
[4] = rat M1, FLIPR Ca2+, second value of the cell, read-out: ratM1 EC50

Structure (SMILES)	EC50 [1, 3]	EC50 [2, 4]	EC50 [1]	EC50 [2]
Cn1cc(-c2ccc(Cn3cc(C(=O)NC4CCOCC4)c4c(F)cccc43)cn2)cn1 [Example 68, 4-fluoro-1-((6-(1-methyl-1H-pyrazol-4-yl)yridine-3-yl)methyl)-N-(tetrahydro-2H-pyran-4-yl)-1H-indole-3-carboxamide]	267 nM	182 nM	–	–
Cn1cc(-c2ccc(Cn3nc(C(=O)N[C@H]4CCCC[C@@H]4O)c4c(F)ccc(F)c43)c(F)c2)cn1 [Example 72, 4,7-difluoro-1-(2-fluoro-4-(1-methyl-1H-pyrazol-4-yl)benzyl)-N-((1S,2S)-2-hydroxycyclohexyl)-1H-indazole-3-carboxamide]	42.8 nM	133 nM	–	–
Cn1cc(-c2ccc(Cn3nc(C(=O)N[C@H]4CCOC[C@@H]4O)c4c(F)ccc(F)c43)c(F)c2)cn1 [Example 73, 4,7-difluoro-1-(2-fluoro-4-(1-methyl-1H-pyrazol-4-yl)benzyl)-N-((3R,4S)-3-hydroxytetrahydro-2H-pyran-4-yl)-1H-indazole-3-carboxamide]	65.8 nM	94.3 nM	–	–
Cn1cc(-c2ccc(Cn3nc(C(=O)N[C@H]4CCOC[C@@H]4O)c4c(F)ccc(F)c43)cn2)cn1 [Example 74, 4,7-difluoro-N-((3R,4S)-3-hydroxytetrahydro-2H-pyran-4-yl)-1-((6-(1-methyl-1H-pyrazol-4-yl)yridine-3-yl)methyl)-1H-indazole-3-carboxamide]	54.8 nM	48.9 nM	–	–
Cn1cc(-c2ccc(Cn3nc(C(=O)N[C@H]4CCCC[C@@H]4O)c4c(F)ccc(F)c43)cn2)cn1 [Example 75, 4,7-difluoro-N-((1S,2S)-2-hydroxycyclohexanol)-1-((6-(1-methyl-1H-pyrazol-4-yl)yridine-3-yl)methyl)-1H-indazole-3-carboxamide]	40.1 nM	46 nM	–	–
NC(=O)c1ccc(Cn2cc(C(=O)N[C@H]3CCCC[C@@H]3O)c3c(F)cccc32)cc1 [Example 77, 1-(4-carbamoylbenzyl)-4-fluoro-N-((1S,2S)-2-hydroxycyclohexyl)-1H-indole-3-carboxamide]	2.21 nM	2.47 nM	–	–
O=C(N[C@H]1CCOC[C@@H]1O)c1cn(Cc2ccc(-n3cncn3)nc2)c2cccc(F)c12 [Example 78, 1-((6-(1H-1,2,4-triazol-1-yl)yridine-3-yl)methyl)-4-fluoro-N-((3R,4S)-3-hydroxytetrahydro-2H-pyran-4-yl)-1H-indole-3-carboxamide]	522 nM	728 nM	–	–
O=C(N[C@H]1CCOC[C@@H]1O)c1cn(Cc2ccc(-c3nccs3)cc2)c2cccc(F)c12 [Example 79, 4-fluoro-N-((3R,4S)-3-hydroxytetrahydro-2H-pyran-4-yl)-1-(4-(thiazol-2-yl)benzyl)-1H-indole-3-carboxamide]	16.8 nM	25.6 nM	–	–
NC(=O)Cc1ccc(Cn2cc(C(=O)N[C@H]3CCCC[C@@H]3O)c3c(F)cccc32)cc1 [Example 80, 1-(4-(2-amino-2-oxoethyl)benzyl)-4-fluoro-N-((1S,2S)-2-hydroxycyclohexyl)-1H-indole-3-carboxamide]	110 nM	263 nM	–	–
Cc1nc(-c2ccc(Cn3cc(C(=O)N[C@H]4CCOC[C@@H]4O)c4c(F)cccc43)cc2)no1 [Example 83, 4-fluoro-N-((3R,4S)-3-hydroxytetrahydro-2H-pyran-4-yl)-1-(4-(5-methyl-1,2,4-oxadiazol-3-yl)benzyl)-1H-indole-3-carboxamide]	184 nM	160 nM	–	–
O=C(N[C@H]1CCOC[C@@H]1O)c1cn(Cc2ccc(N3CCCC3=O)cc2)c2cccc(F)c12 [Example 84, 4-fluoro-N-((3R,4S)-3-hydroxytetrahydro-2H-pyran-4-yl)-1-(4-(2-oxopyrrolidin-1-yl)benzyl)-1H-indole-3-carboxamide]	182 nM	169 nM	–	–
CNC(=O)c1ccc(Cn2cc(C(=O)N[C@H]3CCCC[C@@H]3O)c3c(F)cccc32)c(F)c1 [Example 86, 4-fluoro-1-(2-fluoro-4-(methylcarbamoyl)benzyl)-N-((1S,2S)-2-hydroxycyclohexyl)-1H-indole-3-carboxamide]	6.91 nM	13 nM	–	–
CNC(=O)c1ccc(Cn2cc(C(=O)N[C@H]3CCCC[C@@H]3O)c3c(F)cccc32)cn1 [Example 87, 4-fluoro-N-((1S,2S)-2-hydroxycyclohexyl)-1-((6-(methylcarbamoyl)pyridin-3-yl)methyl)-1H-indole-3-carboxamide]	73.4 nM	120 nM	–	–
CNC(=O)c1ccc(Cn2cc(C(=O)N[C@H]3CCCC[C@@H]3O)c3c(F)cccc32)cc1F [Example 88, 4-fluoro-1-(3-fluoro-4-(methylcarbamoyl)benzyl)-N-((1S,2S)-2-hydroxycyclohexyl)-1H-indole-3-carboxamide]	14.3 nM	15.8 nM	–	–
Cn1cc(-c2ccc(Cn3cc(CC(=O)N[C@H]4CCOC[C@@H]4O)c4c(F)cccc43)c(F)c2)cn1 [Example 92, 2-[4-Fluoro-1-[[2-fluoro-4-(1-methylpyrazol-4-yl)phenyl]methyl]indol-3-yl]-N-[(3R,4S)-3-hydroxyoxan-4-yl]acetamide]	35 nM	57 nM	–	–
Cn1cc(-c2ccc(Cn3cc(CC(=O)N[C@H]4CCCC[C@@H]4O)c4c(F)cccc43)c(F)c2)cn1 [Example 93, 2-(4-fluoro-1-(2-fluoro-4-(1-methyl-1H-pyrazol-4-yl)benzyl)-1H-indol-3-yl)-N-((1S,2S)-2-hydroxycyclohexyl)acetamide]	191 nM	1880 nM	–	–
Cn1ncc2cc(Cn3cc(C(=O)NC4CCOCC4)c4c(F)ccc(F)c43)ccc21 [Example 94, 4,7-difluoro-1-((1-methyl-1H-indazol-5-yl)methyl)-N-(tetrahydro-2H-pyran-4-yl)-1H-indole-3-carboxamide]	–	–	66 nM	141 nM
Cn1cc(-c2ccc(Cn3cc(C(=O)NC4CCOCC4)c4c(F)ccc(F)c43)cc2)cn1 [Example 95, 4,7-difluoro-1-(4-(1-methyl-1H-pyrazol-4-yl)benzyl)-N-(tetrahydro-2H-pyran-4-yl)-1H-indole-3-carboxamide]	27 nM	50 nM	–	–
Cn1cc(-c2ccc(Cn3cc(C(=O)NC4CCOCC4)c4c(F)ccc(F)c43)c(F)c2)cn1 [Example 96, 4,7-difluoro-1-(2-fluoro-4-(1-methyl-1H-pyrazol-4-yl)benzyl)-N-(tetrahydro-2H-pyran-4-yl)-1H-indole-3-carboxamide]	28 nM	73 nM	–	–
Cn1cc(-c2ccc(Cn3cc(C(=O)NCC4(O)CC4)c4c(F)cccc43)c(F)c2)cn1 [Example 97, 4-fluoro-1-(2-fluoro-4-(1-methyl-1H-pyrazol-4-yl)benzyl)-N-((1-hydroxycyclopropyl)methyl)-1H-indole-3-carboxamide]	465 nM	1890 nM	–	–
CNC(=O)c1ccc(Cn2cc(CC(=O)N[C@H]3CCOC[C@@H]3O)c3c(F)cccc32)cc1 [Example 98, 4-((4-fluoro-3-(2-((3R,4S)-3-hydroxytetrahydro-2H-pyran-4-ylamino)-2-oxoethyl)-1H-indol-1-yl)methyl)-N-methylbenzamide]	32 nM	134 nM	–	–
CNC(=O)c1ccc(Cn2cc(CC(=O)N[C@H]3CCCC[C@@H]3O)c3c(F)cccc32)cc1 [Example 99]	54 nM	195 nM	–	–
Cn1cc(-c2ccc(Cn3cc(C(=O)N[C@@H]4CCCC(F)(F)[C@H]4O)c4c(F)cccc43)cc2)cn1 [Example 100, N-((1R,2S)-3,3-difluoro-2-hydroxycyclohexyl)-4-fluoro-1-(4-(1-methyl-1H-pyrazol-4-yl)benzyl)-1H-indole-3-carboxamide]	4 nM	15 nM	–	–
Cn1cc(-c2ccc(Cn3cc(C(=O)N[C@H]4CCCC(F)(F)[C@@H]4O)c4c(F)cccc43)cc2)cn1 [Example 101, N-((1S,2R)-3,3-difluoro-2-hydroxycyclohexyl)-4-fluoro-1-(4-(1-methyl-1H-pyrazol-4-yl)benzyl)-1H-indole-3-carboxamide]	14 nM	42 nM	–	–
Cn1cc(-c2ccc(Cn3cc(C(=O)N[C@@H]4CCCC(F)(F)[C@H]4O)c4c(F)cccc43)c(F)c2)cn1 [Example 102, N-((1R,2S)-3,3-difluoro-2-hydroxycyclohexyl)-4-fluoro-1-(2-fluoro-4-(1-methyl-1H-pyrazol-4-yl)benzyl)-1H-indole-3-carboxamide]	29 nM	88 nM	–	–
